Experiment in all cases: NCI tumour cell line growth inhibition, 48 h
Assay [1] has as its system A549 NSCLC.
Assay [2] relates to HL-60(TB) leukemia.
Assay [3] has as its system IGROV1 ovarian.
Assay [4] deals with KM12 colon.
In assay [5] the test system is M14 melanoma.
Assay [6] has as its system MDA-MB-435.
In assay [7] the test system is NCI-H460 lung.
Assay [8] relates to SK-MEL-28 melanoma.
Assay [9] has as its system SW-620 colon.
For assay [10], the system named is UACC-62 melanoma.

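Results reflect a 48-hour exposure of cells in 96-well plates to compound at five concentrations. GI50: concentration for 50% inhibition of growth. At the TGI there is no net growth.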

As to `COc1ccc(-c2c(N)noc2-c2cc(OC)c3c(c2)OCCO3)cc1`, the GI50 in assay [1] was 0.0101 µM; in assay [2], 0.0102 µM; in [3] it was 0.0177 µM; in [4], under 0.01 µM; in assay [5], under 0.01 µM; in assay [6], under 0.01 µM. In addition, the GI50 in assay [7] is under 0.01 µM; in assay [8], 0.026 µM; in assay [9], under 0.01 µM; in assay [10] it was under 0.01 µM. Besides, the TGI was over 41.6 µM in assay [1]; 0.0434 µM in [2]; over 73.3 µM in assay [3]; 3.8 µM in assay [4]; 0.048 µM in assay [5]; 0.0102 µM in assay [6]. For the same compound, the TGI was 11.9 µM in assay [7], over 100 µM in [8], over 100 µM in assay [9] and 28.2 µM in [10].
Turning to `C#C[C@]1(O)CC[C@H]2[C@@H]3CC=C4c5nc(N)sc5CC[C@]4(C)[C@H]3CC[C@@]21C`, the GI50 in [1] was 4.15 µM; in assay [2], 2.65 µM; in [3] it was 4.83 µM; in [4] it was 3.49 µM; in assay [5], 2.75 µM; in [6] it was 2.22 µM. Also, the GI50 in assay [7] is 3.78 µM; in assay [8] it was 1.9 µM; in assay [9], 2.81 µM; in [10], 2.05 µM. Also, the TGI amounted to 24.8 µM in assay [1]; 7.04 µM in assay [2]; 25.9 µM in assay [3]; 16.1 µM in assay [4]; 7.83 µM in [5]; 7.2 µM in [6]. Further, the TGI stood at 16.4 µM in assay [7], 4.67 µM in [8], 8.68 µM in [9] and 5.2 µM in [10].
Take `CN1CC[C@H](c2c(O)cc(O)c3c(=O)cc(-c4ccccc4Cl)oc23)[C@H](O)C1`: the GI50 was 0.0946 µM in assay [1]; 0.0508 µM in assay [2]; 0.0414 µM in [3]; 0.0696 µM in assay [5]; 0.0712 µM in assay [6]; 0.0572 µM in assay [9]. In assay [10], the GI50 is 0.0515 µM. For the same compound, the TGI was over 10 µM in [1]; over 2.49 µM in assay [2]; over 10 µM in assay [3]; over 10 µM in assay [4]; 0.293 µM in [5]; 0.26 µM in assay [6]. The TGI in assay [7] was over 10 µM; in assay [8], 1.3 µM; in [9], over 10 µM; in assay [10] it was 0.164 µM.
With `COc1ccc(C2NC(=S)NC3=C2CCOc2c3ccc3ccccc23)cc1` (configuration not stated), the GI50 is 39 µM in [1]; 23.4 µM in assay [2]; over 100 µM in assay [3]; 27 µM in [4]; over 100 µM in assay [5]; 36.4 µM in assay [6]. Further, the GI50 in assay [7] was 7.88 µM; in assay [8] it was over 100 µM; in assay [9], over 100 µM; in [10] it was 21.2 µM. Moreover, the TGI in assay [1], in [2], in assay [3], in assay [4], in assay [5] and in assay [6] was over 100 µM throughout. The TGI in assay [7], in [8], in assay [9] and in assay [10] was over 100 µM each time.
As for `Cn1c(=O)c2c(nc(N/N=C/c3ccccc3C(=O)O)n2C)n(C)c1=O`, the TGI in [1], in assay [2], in assay [3], in [4], in [5] and in assay [6] was over 100 µM in each case. In addition, the TGI in assay [7], in assay [8], in assay [9] and in assay [10] was over 100 µM in each case.
With `NC(=O)/C(=C/n1cnc(-c2cc(C(F)(F)F)cc(C(F)(F)F)c2)n1)c1cncnc1`, the GI50 in assay [1] is 0.552 µM; in assay [2] it was 0.0562 µM; in [3], 0.696 µM; in assay [4], 1.19 µM; in assay [5], 0.715 µM; in assay [6], 0.237 µM. In addition, the GI50 in [7] was 0.187 µM; in [8], 0.503 µM; in [9], 0.175 µM; in assay [10] it was 0.63 µM. Moreover, the TGI in [1] is over 47.1 µM; in assay [2] it was 2.96 µM; in assay [3], 14.7 µM; in assay [4], 13.4 µM; in [5], 7.86 µM; in assay [6], 3.89 µM. The TGI in [7] is 5.61 µM; in assay [8], 11.7 µM; in assay [9] it was 7.03 µM; in assay [10] it was 5.37 µM.
As for `COc1cc2c3c(n(CCCNCCCNCCCN)c(=O)c2cc1OC)-c1cc2c(cc1C3=O)OCO2`, the GI50 in [1] was over 100 µM; in assay [2] it was over 100 µM; in assay [3], over 100 µM; in [4], over 100 µM; in assay [5], 52 µM; in assay [6], 68.4 µM. Also, the GI50 was over 100 µM in [7], over 100 µM in assay [8], 82.5 µM in assay [9] and 44.1 µM in assay [10]. Besides, the TGI in assay [1], in [2], in [3], in [4], in assay [5] and in [6] was over 100 µM each time. The TGI in assay [7], in assay [8], in assay [9] and in assay [10] was over 100 µM throughout.
`Cc1ccc(C2CC(c3ccc(Nc4ccnc5cc(Cl)ccc45)cc3)=NN2C=O)cc1` (configuration not stated): the GI50 is 9.86 µM in assay [1]; 2.27 µM in assay [2]; 26.6 µM in assay [3]; 6.64 µM in assay [4]; 6.88 µM in [5]; 1.95 µM in assay [6]. Besides, the GI50 in [7] is over 100 µM; in assay [8] it was over 100 µM; in [9], over 100 µM; in [10] it was 4.13 µM. Also, the TGI is over 100 µM in assay [1]; 6.21 µM in assay [2]; over 100 µM in [3]; over 100 µM in [4]; over 100 µM in assay [5]; over 100 µM in assay [6]. Also, the TGI in [7], in assay [8], in assay [9] and in [10] was over 100 µM each time.

The values are drawn from PubChem BioAssay (NCI).
